# Results reported in publication PMC5218480 (PLoS ONE, 2017).
# Tested on: MV-4-11 cells
# Test: Gene expression microarray analysis (Affymetrix PrimeView) and GSEA
# Type: cell-based, human
# Set-up: RFU PODN (11730768_x_at) / Fold change /veh PODN (11730768_x_at) / RFU LINC00158 (11744669_a_at) / Fold change /veh LINC00158 (11744669_a_at) / RFU DUSP10 (11751237_a_at) / Fold change /veh DUSP10 (11751237_a_at) / RFU ID3 (11757404_x_at) / Fold change /veh ID3 (11757404_x_at) / RFU PLEKHG5 (11737974_s_at) / Fold change /veh PLEKHG5 (11737974_s_at) / RFU LRRC4B (11730491_at) / Fold change /veh LRRC4B (11730491_at) / RFU GIMAP4 (11747438_a_at) / Fold change /veh GIMAP4 (11747438_a_at) / RFU KRT8 (11758183_x_at) / Fold change /veh KRT8 (11758183_x_at) / RFU CNN1 (11734310_a_at) / Fold change /veh CNN1 (11734310_a_at) / RFU VPS37D (11726825_at) / Fold change /veh VPS37D (11726825_at) / RFU C10orf10 (11716522_x_at) / Fold change /veh C10orf10 (11716522_x_at) / RFU KIR2DL2 /// KIR2DL4 /// KIR2DL5A /// KIR2DL5B /// KIR2DS1 /// KIR2DS2 /// KIR2DS3 /// KIR2DS4 /// KIR3DL3 /// KIR3DL3 /// KIR3DS1 (11738374_at) / Fold change /veh KIR2DL2 /// KIR2DL4 /// KIR2DL5A /// KIR2DL5B /// KIR2DS1 /// KIR2DS2 /// KIR2DS3 /// KIR2DS4 /// KIR3DL3 /// KIR3DL3 /// KIR3DS1 (11738374_at) / RFU C1QL1 (11718748_at) / Fold change /veh C1QL1 (11718748_at) / RFU TMPRSS4 (11747572_a_at) / Fold change /veh TMPRSS4 (11747572_a_at) / RFU HAMP (11756126_x_at) / Fold change /veh HAMP (11756126_x_at) / RFU RNFT2 (11725882_a_at) / Fold change /veh RNFT2 (11725882_a_at) / RFU NR4A2 (11747474_a_at) / Fold change /veh NR4A2 (11747474_a_at) / RFU ABCC12 (11746883_a_at) / Fold change /veh ABCC12 (11746883_a_at) / RFU TMEM136 (11760407_x_at) / Fold change /veh TMEM136 (11760407_x_at) / RFU CLDN22 /// WWC2 (11732394_at) / Fold change /veh CLDN22 /// WWC2 (11732394_at) / RFU HLA-DPB1 (11760878_x_at) / Fold change /veh HLA-DPB1 (11760878_x_at) / RFU SPINT1 (11716480_a_at) / Fold change /veh SPINT1 (11716480_a_at) / RFU GAP43 (11754022_s_at) / Fold change /veh GAP43 (11754022_s_at) / RFU A4GNT (11735810_at) / Fold change /veh A4GNT (11735810_at) / RFU PRB3 (11715151_x_at) / Fold change /veh PRB3 (11715151_x_at) / RFU TUBB4B (11761932_at) / Fold change /veh TUBB4B (11761932_at) / RFU CAPN14 (11732068_a_at) / Fold change /veh CAPN14 (11732068_a_at) / RFU TMCC2 (11721928_a_at) / Fold change /veh TMCC2 (11721928_a_at) / RFU IRGQ (11745062_a_at) / Fold change /veh IRGQ (11745062_a_at) / RFU FAM174B (11720279_a_at) / Fold change /veh FAM174B (11720279_a_at) / RFU TMPRSS4 (11748680_a_at) / Fold change /veh TMPRSS4 (11748680_a_at) / RFU FAM212B (11763350_a_at) / Fold change /veh FAM212B (11763350_a_at) / RFU PLEKHG5 (11743358_a_at) / Fold change /veh PLEKHG5 (11743358_a_at) / RFU ZSCAN30 (11745921_a_at) / Fold change /veh ZSCAN30 (11745921_a_at) / RFU CMKLR1 (11741424_a_at) / Fold change /veh CMKLR1 (11741424_a_at) / RFU LOC101060620 /// MAPK8IP1 (11723275_at) / Fold change /veh LOC101060620 /// MAPK8IP1 (11723275_at) / RFU SPTSSB (11747773_x_at) / Fold change /veh SPTSSB (11747773_x_at) / RFU PRSS12 (11739890_at) / Fold change /veh PRSS12 (11739890_at) / RFU BIN1 (11741810_x_at) / Fold change /veh BIN1 (11741810_x_at) / RFU WNT11 (11732464_a_at) / Fold change /veh WNT11 (11732464_a_at) / RFU C10orf10 (11716521_a_at) / Fold change /veh C10orf10 (11716521_a_at) / RFU C5orf56 (11738089_at) / Fold change /veh C5orf56 (11738089_at) / RFU CYB561 (11721691_x_at) / Fold change /veh CYB561 (11721691_x_at) / RFU ANKRD19P (11752326_a_at) / Fold change /veh ANKRD19P (11752326_a_at) / RFU OR2T12 /// OR2T33 /// OR2T8 (11738714_s_at) / Fold change /veh OR2T12 /// OR2T33 /// OR2T8 (11738714_s_at) / RFU VCAN (11748164_a_at) / Fold change /veh VCAN (11748164_a_at) / RFU JSRP1 (11732532_at) / Fold change /veh JSRP1 (11732532_at) / RFU KRTAP10-11 (11738290_x_at) / Fold change /veh KRTAP10-11 (11738290_x_at) / RFU MYO3A (11730013_a_at) / Fold change /veh MYO3A (11730013_a_at) / RFU EBF3 (11725865_a_at) / Fold change /veh EBF3 (11725865_a_at) / RFU CAMK2N1 (11719241_x_at) / Fold change /veh CAMK2N1 (11719241_x_at) / RFU C5orf56 (11738088_a_at) / Fold change /veh C5orf56 (11738088_a_at) / RFU OLFML3 (11715873_a_at) / Fold change /veh OLFML3 (11715873_a_at) / RFU LOC100653217 /// NTM (11731650_a_at) / Fold change /veh LOC100653217 /// NTM (11731650_a_at) / RFU MAPK11 (11762145_a_at) / Fold change /veh MAPK11 (11762145_a_at) / RFU FIZ1 (11724087_x_at) / Fold change /veh FIZ1 (11724087_x_at) / RFU OASL (11726364_x_at) / Fold change /veh OASL (11726364_x_at) / RFU SOX15 (11748057_x_at) / Fold change /veh SOX15 (11748057_x_at) / RFU CD79A (11719716_a_at) / Fold change /veh CD79A (11719716_a_at) / RFU HIST1H1D (11736915_at) / Fold change /veh HIST1H1D (11736915_at) / RFU CASKIN2 (11723855_a_at) / Fold change /veh CASKIN2 (11723855_a_at) / RFU LOC730098 (11760151_x_at) / Fold change /veh LOC730098 (11760151_x_at) / RFU OR4N2 (11742367_at) / Fold change /veh OR4N2 (11742367_at) / RFU PRRT2 (11749266_a_at) / Fold change /veh PRRT2 (11749266_a_at) / RFU SNX32 (11753110_a_at) / Fold change /veh SNX32 (11753110_a_at) / RFU CDHR5 (11726645_a_at) / Fold change /veh CDHR5 (11726645_a_at) / RFU RCAN1 (11760418_a_at) / Fold change /veh RCAN1 (11760418_a_at) / RFU FAM167A (11723789_a_at) / Fold change /veh FAM167A (11723789_a_at) / RFU FAM26E (11764081_at) / Fold change /veh FAM26E (11764081_at) / RFU ISYNA1 (11749810_s_at) / Fold change /veh ISYNA1 (11749810_s_at) / RFU ACY1 (11761880_at) / Fold change /veh ACY1 (11761880_at) / RFU 11764098_at / Fold change /veh 11764098_at / RFU SAMD14 (11745864_x_at) / Fold change /veh SAMD14 (11745864_x_at) / RFU NPB (11741838_a_at) / Fold change /veh NPB (11741838_a_at) / RFU TMPRSS6 (11731388_a_at) / Fold change /veh TMPRSS6 (11731388_a_at) / RFU KRTAP10-2 (11738614_at) / Fold change /veh KRTAP10-2 (11738614_at) / RFU ARHGAP8 /// PRR5-ARHGAP8 (11727945_x_at) / Fold change /veh ARHGAP8 /// PRR5-ARHGAP8 (11727945_x_at) / RFU KRTAP5-7 /// NADSYN1 (11734609_at) / Fold change /veh KRTAP5-7 /// NADSYN1 (11734609_at) / RFU RASL12 (11751679_a_at) / Fold change /veh RASL12 (11751679_a_at) / RFU CDKN2B (11736163_a_at) / Fold change /veh CDKN2B (11736163_a_at) / RFU PRF1 (11729649_at) / Fold change /veh PRF1 (11729649_at) / RFU, ZNF638 /// ZNF638-IT1 / Fold change vs veh, ZNF638 /// ZNF638-IT1 / RFU, PANK3 / Fold change vs veh, PANK3 / RFU, SH3YL1 / Fold change vs veh, SH3YL1 / RFU, ZEB2 / Fold change vs veh, ZEB2 / RFU, NRIP1 / Fold change vs veh, NRIP1 / RFU, PTTG1IP / Fold change vs veh, PTTG1IP / RFU, CAPN2 / Fold change vs veh, CAPN2 / RFU, MED14 / Fold change vs veh, MED14 / RFU, SNORA58 / Fold change vs veh, SNORA58 / RFU, C1orf63 / Fold change vs veh, C1orf63 / RFU, LRRFIP1 / Fold change vs veh, LRRFIP1 / RFU, NDUFAF7 / Fold change vs veh, NDUFAF7 / RFU, SLC12A2 / Fold change vs veh, SLC12A2 / RFU, IBTK / Fold change vs veh, IBTK / RFU, ESF1 / Fold change vs veh, ESF1 / Fold change vs veh, TMEM50B / RFU, TAOK1 / Fold change vs veh, TAOK1 / RFU, ACBD3 / Fold change vs veh, ACBD3 / RFU, TMA16 / Fold change vs veh, TMA16 / RFU, RWDD3 / Fold change vs veh, RWDD3 / RFU, BCAT1 / Fold change vs veh, BCAT1 / RFU, EDEM3 / Fold change vs veh, EDEM3 / RFU, TMEM33 / Fold change vs veh, TMEM33 / RFU, WDR75 / Fold change vs veh, WDR75 / RFU, AHCTF1 / Fold change vs veh, AHCTF1 / RFU, TFRC / Fold change vs veh, TFRC / RFU, ZDHHC17 / Fold change vs veh, ZDHHC17 / RFU, NOM1 / Fold change vs veh, NOM1 / RFU, ARL8B / Fold change vs veh, ARL8B / RFU, ZBTB11 / Fold change vs veh, ZBTB11 / RFU, TAMM41 / Fold change vs veh, TAMM41 / RFU, KIAA1704 /// LOC100996395 / Fold change vs veh, KIAA1704 /// LOC100996395 / RFU, ING1 / Fold change vs veh, ING1 / RFU, TRMT61B / Fold change vs veh, TRMT61B / RFU, FUBP3 / Fold change vs veh, FUBP3 / RFU, TP53 / Fold change vs veh, TP53 / RFU, TNKS2 / Fold change vs veh, TNKS2 / RFU, ZFP14 / Fold change vs veh, ZFP14 / RFU, ACTR2 / Fold change vs veh, ACTR2 / RFU, PPP3R1 / Fold change vs veh, PPP3R1 / RFU, PIK3R1 / Fold change vs veh, PIK3R1 / RFU, HNRNPA1 / Fold change vs veh, HNRNPA1 / RFU, RNF170 / Fold change vs veh, RNF170 / RFU, ZNF28 / Fold change vs veh, ZNF28 / RFU, RNGTT / Fold change vs veh, RNGTT / RFU, OGT / Fold change vs veh, OGT / RFU, BRD1 / Fold change vs veh, BRD1 / RFU, MARS / Fold change vs veh, MARS / RFU, ZNF655 / Fold change vs veh, ZNF655 / RFU, FAHD1 / Fold change vs veh, FAHD1 / RFU, BDP1 / Fold change vs veh, BDP1 / RFU, LRRCC1 / Fold change vs veh, LRRCC1 / RFU, ARID1A / Fold change vs veh, ARID1A / RFU, ZNF146 / Fold change vs veh, ZNF146 / RFU, ZNF330 / Fold change vs veh, ZNF330 / RFU, GPN3 / Fold change vs veh, GPN3 / RFU, C9orf123 / Fold change vs veh, C9orf123 / RFU, N4BP2L2 / Fold change vs veh, N4BP2L2 / RFU, ARFIP1 / Fold change vs veh, ARFIP1 / RFU, FAM179B / Fold change vs veh, FAM179B / RFU, BCL10 / Fold change vs veh, BCL10 / RFU, UHRF1BP1L / Fold change vs veh, UHRF1BP1L / RFU, BET1 / Fold change vs veh, BET1 / RFU, CNOT2 / Fold change vs veh, CNOT2 / RFU, ZNF268 / Fold change vs veh, ZNF268 / Fold change vs veh, ZNF507 / RFU, DGCR2 / Fold change vs veh, DGCR2 / RFU, WDSUB1 / Fold change vs veh, WDSUB1 / Fold change vs veh, HSP90B1 /// MIR3652 / RFU, ADSS / Fold change vs veh, ADSS / RFU, GK / Fold change vs veh, GK / RFU, ZNF148 / Fold change vs veh, ZNF148 / RFU, TAF9 / Fold change vs veh, TAF9 / RFU, SLC1A5 / Fold change vs veh, SLC1A5 / RFU, SLMO2 / Fold change vs veh, SLMO2 / RFU, ABCC4 / Fold change vs veh, ABCC4 / RFU, LOC101060439 /// RAP1B / Fold change vs veh, LOC101060439 /// RAP1B / RFU, RFX7 / Fold change vs veh, RFX7 / RFU, GTPBP10 / Fold change vs veh, GTPBP10 / RFU, CNEP1R1 / Fold change vs veh, CNEP1R1 / RFU, BIVM-ERCC5 /// ERCC5 / Fold change vs veh, BIVM-ERCC5 /// ERCC5 / RFU, ILF3 / Fold change vs veh, ILF3 / RFU 11762660_at / Fold change /veh 11762660_at / RFU VCAN (11757783_s_at) / Fold change /veh VCAN (11757783_s_at) / RFU DDX43 (11728927_at) / Fold change /veh DDX43 (11728927_at) / RFU KRT8 (11758188_x_at) / Fold change /veh KRT8 (11758188_x_at) / RFU NKD1 (11759106_at) / Fold change /veh NKD1 (11759106_at) / RFU SRD5A1 (11742802_a_at) / Fold change /veh SRD5A1 (11742802_a_at) / RFU TPSAB1 /// TPSB2 (11721975_s_at) / Fold change /veh TPSAB1 /// TPSB2 (11721975_s_at) / RFU GSTM3 (11746129_a_at) / Fold change /veh GSTM3 (11746129_a_at) / RFU IL23R (11737362_x_at) / Fold change /veh IL23R (11737362_x_at) / RFU TMEM51 (11727254_a_at) / Fold change /veh TMEM51 (11727254_a_at) / RFU PIWIL2 (11732686_x_at) / Fold change /veh PIWIL2 (11732686_x_at) / RFU ORM1 (11744905_x_at) / Fold change /veh ORM1 (11744905_x_at) / RFU CCDC152 (11743942_at) / Fold change /veh CCDC152 (11743942_at) / RFU ECM1 (11717891_a_at) / Fold change /veh ECM1 (11717891_a_at) / RFU IL23R (11748794_a_at) / Fold change /veh IL23R (11748794_a_at) / RFU TNFAIP8L3 (11732012_x_at) / Fold change /veh TNFAIP8L3 (11732012_x_at) / RFU MBOAT4 (11741988_at) / Fold change /veh MBOAT4 (11741988_at) / RFU 11764193_at / Fold change /veh 11764193_at / RFU TMEM53 (11763286_at) / Fold change /veh TMEM53 (11763286_at) / RFU MAGEB2 (11727129_at) / Fold change /veh MAGEB2 (11727129_at) / RFU TMEM200A (11744735_a_at) / Fold change /veh TMEM200A (11744735_a_at) / RFU CCDC152 (11751479_a_at) / Fold change /veh CCDC152 (11751479_a_at) / RFU FAM211A (11726209_a_at) / Fold change /veh FAM211A (11726209_a_at) / RFU RGS16 (11746705_a_at) / Fold change /veh RGS16 (11746705_a_at) / RFU VCAN (11755009_s_at) / Fold change /veh VCAN (11755009_s_at) / RFU RHOB (11743442_s_at) / Fold change /veh RHOB (11743442_s_at) / RFU RGS16 (11720943_a_at) / Fold change /veh RGS16 (11720943_a_at) / RFU RGS16 (11720944_at) / Fold change /veh RGS16 (11720944_at) / RFU, VPS4B / Fold change vs veh, VPS4B / RFU, CREB1 / Fold change vs veh, CREB1 / RFU, DNAJC13 / Fold change vs veh, DNAJC13 / RFU, GNAQ / Fold change vs veh, GNAQ / RFU, CDK5R1 / Fold change vs veh, CDK5R1 / RFU, ZRANB3 / Fold change vs veh, ZRANB3 / RFU, CUL4A / Fold change vs veh, CUL4A / RFU, CCNY / Fold change vs veh, CCNY / RFU, UFL1 / Fold change vs veh, UFL1 / RFU, COG3 / Fold change vs veh, COG3 / RFU, DIAPH2 / Fold change vs veh, DIAPH2 / RFU, SKA2 / Fold change vs veh, SKA2 / RFU, AFF3 / Fold change vs veh, AFF3 / RFU, LMF1 / Fold change vs veh, LMF1 / RFU, IPO11 / Fold change vs veh, IPO11 / RFU, DFFB / Fold change vs veh, DFFB / RFU, FOXP1 / Fold change vs veh, FOXP1 / RFU, CARD8 / Fold change vs veh, CARD8 / RFU, STRN3 / Fold change vs veh, STRN3 / RFU, ADK / Fold change vs veh, ADK / RFU, RASSF2 / Fold change vs veh, RASSF2 / RFU, WIPF1 / Fold change vs veh, WIPF1 / RFU, LARP1B / Fold change vs veh, LARP1B / RFU, RASA1 / Fold change vs veh, RASA1 / RFU, RB1 / Fold change vs veh, RB1 / RFU, PPFIA1 / Fold change vs veh, PPFIA1 / RFU, MAT2A / Fold change vs veh, MAT2A / RFU, CCT5 / Fold change vs veh, CCT5 / RFU, WDR92 / Fold change vs veh, WDR92 / RFU, CUX1 / Fold change vs veh, CUX1 / RFU, TTC7A / Fold change vs veh, TTC7A / RFU, TMEM135 / Fold change vs veh, TMEM135 / RFU, DEPTOR / Fold change vs veh, DEPTOR / RFU, CPM / Fold change vs veh, CPM / RFU, DNAJB6 / Fold change vs veh, DNAJB6 / RFU, CACNA2D3 / Fold change vs veh, CACNA2D3 / RFU, DTX4 / Fold change vs veh, DTX4 / RFU, TFCP2 / Fold change vs veh, TFCP2 / RFU, GMCL1 /// GMCL1P1 / Fold change vs veh, GMCL1 /// GMCL1P1 / RFU, AEBP2 / Fold change vs veh, AEBP2 / RFU, SNHG1 /// SNORD22 /// SNORD25 /// SNORD26 /// SNORD27 /// SNORD28 /// SNORD29 /// SNORD31 / Fold change vs veh, SNHG1 /// SNORD22 /// SNORD25 /// SNORD26 /// SNORD27 /// SNORD28 /// SNORD29 /// SNORD31 / Fold change (Aza/veh), C12orf56 (ProbeSet 11735607_a_at) / Fold change (ACY-1035/veh), C12orf56 (ProbeSet 11735607_a_at) / Fold change (Aza/veh), FGFR1OP (ProbeSet 11751329_s_at) / Fold change (ACY-1035/veh), FGFR1OP (ProbeSet 11751329_s_at) / Fold change (Aza/veh), VPS36 (ProbeSet 11739960_a_at) / Fold change (ACY-1035/veh), VPS36 (ProbeSet 11739960_a_at) / RFU SYPL1 (11715823_x_at) / Fold change /veh SYPL1 (11715823_x_at) / RFU IGFBP7 (11715501_s_at) / Fold change /veh IGFBP7 (11715501_s_at) / RFU REEP3 (11722064_at) / Fold change /veh REEP3 (11722064_at) / RFU IGLL1 (11728026_x_at) / Fold change /veh IGLL1 (11728026_x_at): dose or concentration left out as unconfirmed
# Settings: MV-4-11 cells, 48 hours
compound,measurement,value
Nc1ncn([C@@H]2O[C@H](CO)[C@@H](O)[C@H]2O)c(=O)n1 [azacitidine],Fold change /veh CASKIN2 (11723855_a_at),1.13
